Measured values from patent publication US20150024031A1, “Methods And Compositions For Reducing Pain, Inflammation, And/Or Immunological Reactions Associated With Parenterally Administering A Primary Therapeutic Agent” (BAXTER INTERNATIONAL INC., priority 2013, published 2015).
Each block holds one compound with its values, some of them ahead of it.

Assays:
[1] = test system: Lewis rats inoculated with peptidoglycan-polysaccharide (PG-PS); assay: Histopathological examination of stifle joints (synovial inflammation); type: in vivo; conditions: scale of 1 (no inflammation) to 3, necropsy Day 30
Method: (§1) The ability of a dispersion comprising microparticles of an analgesic agent according to the invention to mediate pain and inflammation was investigated in an animal model. Lewis rats were inoculated with peptidoglycan-polysaccharide (PG-PS) (5.4 mg/mL, Lee Laboratories) by intraarticular injection in the right knee two weeks prior to the start of the examination period, i.e., on Day −14. PG-PS induces inflammation highly representative of that produced by certain drugs and is also used in models of arthritis. On Day 0, animals were dosed via single intraarticular injection of 70 μL saline, daily oral celecoxib 10 mg/kg, or single intraarticular injection of 70 μL (8.5 mg) ropivacaine suspension. Two hours post-dosing, the inflammatory response was activated by a tail vein injection of 0.5 mL of 0.4 mg/mL PG-PS. […] The animals in the saline and ropivacaine groups were re-dosed on Day 23, after the initial inflammatory response subsided, and the inflammatory response was reactivated on Day 28 by tail vein injection. The oral celecoxib was dosed 10 mg/kg daily throughout the study except for Day 29, when the dose was increased to 50 mg/kg. The test groups are described in Table 4:
(§2) Drug quantitation was performed on blood and plasma samples to assess the pharmacokinetic profiles of the drugs and the levels to which the drugs were present systemically. Knee joint tissues were also assayed for drug concentration in order to determine if any residual drug was present in the joints at the conclusion of the study. In addition, histological analysis and cytokine analysis were performed on knee joint tissues collected during necropsy on Day 30. […] Quantitation of celecoxib was performed on plasma and whole blood samples collected from the rats in Groups 2 to 5 at timepoints of 1, 6, 12, and 24 hours, and at 7, 14, 21, and 29 days. […] Celecoxib levels in Group 2 (saline control) were primarily below the quantitation limit, as expected. Celecoxib was also detected in the knee tissues from Groups 3, 4, and 5, with the Group 3 levels being the highest, followed by Group 4, and finally Group 5. […] Ropivacaine was undetected in the rat knee tissues.

[2] = slow release depot dosage form; cited from earlier work
[3] = relative, bupivacaine and ropivacaine; cited from earlier work
[4] = Drug quantitation in blood, plasma and knee joint tissues; type: in vivo, Lewis rats; conditions: for drug in knee tissues: end of study
Method: as §1, §2

SMILES: Cc1ccc(-c2cc(C(F)(F)F)nn2-c2ccc(S(N)(=O)=O)cc2)cc1 [Oral Celecoxib]
synovial inflammation score, Animal 1 [1]: 3
synovial inflammation score, Animal 2 [1]: 3
synovial inflammation score, Animal 3 [1]: 3
synovial inflammation score, Animal 4 [1]: 2

SMILES: CCCCN1CCCCC1C(=O)Nc1c(C)cccc1C (centres unmarked) [bupivacaine]
minimum tissue drug level found to alleviate pain [2]: 30 µg/mL
equipotent concentration [3]: 1

drug in knee tissues ([4]; Group 3, 10% suspension intraarticular): highest
interval up to which measurable levels were detected in the blood ([4]; Group 3, intraarticular 70 μL 10% suspension): ≤ 14 days
blood levels compared to Group 3 ([4]; Group 4 (5% suspension) vs Group 3 (10% suspension)): systematically lower
drug in knee tissues ([4]; Group 4, 5% suspension intraarticular): detected
interval up to which measurable levels were detected in the blood ([4]; Group 4, intraarticular 70 μL 5% suspension): ≤ 14 days
blood level on Day 29 ([4]; Group 4, intraarticular 70 μL 5% suspension, re-dosed Day 23): measurable levels
drug in knee tissues ([4]; Group 5, oral 10 mg/kg/day): detected
persistence of systemic levels in blood ([4]; after intraarticular injection, rat blood): approximately 2 weeks
SMILES: Cc1ccc(-c2cc(C(F)(F)F)nn2-c2ccc(S(N)(=O)=O)cc2)cc1 [celecoxib]
